pIC50: −log10 of the molar value.
Legend:
[1] = test system: K562; assay: Cytotoxicity against human K562 cells by disk diffusion soft agar colony formation assay; assay type: functional, cell-based
[2] = test system: SW 1116; assay: Cytotoxicity against human SW1116 cells by disk diffusion soft agar colony formation assay; assay type: functional, cell-based

| Compound | pIC50 ([1]; k562) | pIC50 ([2]; sw 1116) | pIC50 ([1]; Homo sapiens, K562) | pIC50 ([2]; Homo sapiens, SW 1116) |
| --- | --- | --- | --- | --- |
| CC1=C[C@H]2O[C@@H]3C[C@@H](OC(=O)/C=C\C=C\C(OCCC4=CC(=O)OC4)[C@@H](C)O)[C@](C)([C@@]2(COC(=O)/C=C(\C)CCO)CC1)[C@]31CO1 (stereo partly specified) | 8.92 | 8.51 | – | – |
| CC(=O)[C@@]12CC/C=C\C(=O)O[C@@H]3C[C@H]4O[C@@H]5C=C(C)CC[C@]5(COC(=O)/C=C(\CCO1)[C@H]2O)[C@]3(C)[C@]41CO1 | 8.89 | 8.82 | – | – |
| CC(=O)[C@@]12CC/C=C\C(=O)O[C@@H]3C[C@H]4O[C@@H]5[C@@H]6C[C@@]4(O)[C@@]3(C)[C@]5(CC[C@]6(C)O)COC(=O)/C=C(\CCO1)[C@H]2O | – | – | 4.50 | 4.64 |
| CC1=C[C@H]2O[C@@H]3C[C@H]4OC(=O)/C=C\CC[C@]5(C(=O)CO)OCC/C(=C\C(=O)OC[C@@]2(CC1)[C@]4(C)[C@]31CO1)[C@H]5O | 6.04 | 6.26 | – | – |
| CC1=C[C@H]2O[C@@H]3C[C@H]4OC(=O)/C=C\CC[C@@]56OCC/C(=C\C(=O)OC[C@@]2(CC1)[C@]4(C)[C@]31CO1)[C@H]5O[C@@H](O)[C@@H]6O | 8.96 | 8.82 | – | – |
| CC1=C[C@H]2O[C@@H]3C[C@H]4OC(=O)/C=C\C=C\[C@@H]([C@@H](C)O)OCC/C(C)=C/C(=O)OC[C@@]2(CC1)[C@]4(C)[C@]31CO1 | 9.00 | 7.48 | – | – |
| CC(=O)[C@@]12CC/C=C\C(=O)O[C@@H]3C[C@H]4O[C@@H]5[C@@H]6C[C@@]4(O)[C@@]3(C)[C@]5(CC[C@]6(C)O)COC(=O)/C=C(\CCO1)[C@@H]2O | – | – | 6.01 | 4.97 |
| CC(=O)O[C@@H]1/C2=C/C(=O)OC[C@@]34CC[C@](C)(O)[C@H]5C[C@]6(O)[C@@H](C[C@@H](OC(=O)/C=C\CC[C@]1(C(C)=O)OCC2)[C@]36C)O[C@H]54 | – | – | 5.82 | 5.37 |
| C[C@]12[C@H]3C[C@H]4O[C@@H]5[C@H](C[C@]41O)[C@@](C)(O)CC[C@@]52COC(=O)/C=C1\CCO[C@]2(CC/C=C\C(=O)O3)[C@@H]1OC(=O)[C@@H]2O | – | – | 4.80 | 4.68 |
| C/C1=C\C(=O)OC[C@]23CCC(CO)=C[C@H]2O[C@@H]2C[C@@H](OC(=O)/C=C\C=C\[C@H]([C@@H](C)O)OCC1)[C@@]3(C)[C@]21CO1 | 5.15 | 5.04 | – | – |
| C[C@]12[C@H]3C[C@H]4O[C@@H]5[C@H](C[C@]41O)[C@@](C)(O)CC[C@@]52COC(=O)/C=C1\CCO[C@@]2(CC/C=C\C(=O)O3)[C@H](O)C(=O)O[C@H]12 | – | – | 4.80 | 4.94 |
| CC(=O)[C@@]12CC/C=C\C(=O)O[C@@H]3C[C@H]4O[C@@H]5C=C(CO)CC[C@]5(COC(=O)/C=C(\CCO1)[C@H]2O)[C@]3(C)[C@]41CO1 | 5.54 | 6.74 | – | – |
| CC1=C[C@H]2O[C@@H]3C[C@H]4OC(=O)/C=C\CC[C@@]56OCC/C(=C\C(=O)OC[C@@]2(CC1)[C@]4(C)[C@]31CO1)[C@H]5OC(=O)[C@@H]6O | 7.25 | 6.70 | – | – |
| C[C@]12[C@H]3C[C@H]4O[C@@H]5[C@H](C[C@]41O)[C@@](C)(O)CC[C@@]52COC(=O)/C=C1\CCO[C@@](C(=O)CO)(CC/C=C\C(=O)O3)[C@@H]1O | – | – | 4.57 | 4.64 |
| CC1=C[C@H]2O[C@@H]3C[C@H]4OC(=O)/C=C\CC[C@@]5([C@H](C)O)OCC/C(=C\C(=O)OC[C@@]2(CC1)[C@]4(C)[C@]31CO1)[C@@H]5O | 6.29 | 5.64 | – | – |
| C/C1=C\C(=O)OC[C@]23CCC(CO)=C[C@H]2O[C@@H]2C[C@@H](OC(=O)/C=C\C=C\C(=O)OCC1)[C@@]3(C)[C@]21CO1 | 8.19 | 6.80 | – | – |
| C[C@]12[C@H]3C[C@H]4O[C@@H]5[C@H](C[C@]41O)[C@@](C)(O)CC[C@@]52COC(=O)/C=C1\CCO[C@]2(CC/C=C\C(=O)O3)[C@@H]1O[C@H](O)[C@H]2O | – | – | 5.09 | 6.24 |
| CC1=C[C@H]2O[C@@H]3C[C@H]4OC(=O)/C=C\C=C\[C@H]([C@@H](C)O)OCC/C(CO)=C/C(=O)OC[C@@]2(CC1)[C@]4(C)[C@]31CO1 | 5.50 | 5.10 | – | – |
| C[C@@H]1CCOC(=O)/C=C/C=C\C(=O)O[C@@H]2C[C@H]3O[C@@H]4C=C(CO)CC[C@]4(COC(=O)[C@H]1O)[C@]2(C)[C@]31CO1 [16-HYDROXY VERRUCARIN A] | 8.77 | 7.92 | – | – |
| O=c1[nH]cc(F)c(=O)[nH]1 [FLUOROURACIL] | – | – | 4.48 | 4.11 |
| CC1=C[C@H]2O[C@@H]3C[C@H]4OC(=O)/C=C\C=C\[C@H]([C@@H](C)O)OCC[C@@H](C)[C@H](O)C(=O)OC[C@@]2(CC1)[C@]4(C)[C@]31CO1 [RORIDIN A] | 8.15 | 6.68 | – | – |
| CC1=C[C@H]2O[C@@H]3C[C@H]4OC(=O)/C=C\C=C\[C@H]([C@@H](C)O)OCC/C(C)=C/C(=O)OC[C@@]2(CC1)[C@]4(C)[C@]31CO1 [RORIDIN E] | 6.27 | 7.41 | – | – |
| CC1=C[C@H]2O[C@@H]3C[C@H]4OC(=O)/C=C\C=C\C(=O)OCC[C@@H](C)[C@H](O)C(=O)OC[C@@]2(CC1)[C@]4(C)[C@]31CO1 [VERRUCARIN A] | 8.52 | 8.74 | – | – |

Source: ChEMBL document CHEMBL4392866, “Cytotoxic Trichothecene Macrolides Produced by the Endophytic Myrothecium roridum” (J Nat Prod, 2019)
